Test results taken from patent publication US8536132B2, “Lymphatic zip codes in tumors and pre-malignant lesions” (Sanford-Burnham Medical Research Institute, priority 2006, dated 2013).
Entries after “also recorded” stand apart in the source; their conditions may differ. Marks after values point to notes of the source that are not given here.

Experiments:
[1] = tested on: K14-HPV16/E2 cervical dysplasia; test: In vivo phage homing to K14-HPV16/E2 cervical dysplasia (CIN-3); set-up: species or system mouse
Experimental: (§1) The following cell lines were maintained in DMEM supplemented with 10% FCS: C8161 human melanoma, MDA-MB-435 human breast cancer, KRIB human osteosarcoma, and human prostate cancer cells PPC1, DU145. LNCaP human prostate cancer cell line was grown in RPMI 1640 medium with 10 mM HEPES, 1 mM sodium pyruvate and 1.5 g/L sodium bicarbonate supplemented with 10% FCS. M12 human prostate cancer cell line was cultured in RPMI 1640 with 5 μg/ml insulin-transferrin-sodium selenite (ITS), 2.5 μg/ml fungizone, 50 μg/ml gentamycin, 0.2 μM dexamethasone, 10 ng/ml epidermal growth factor (EGF), and 5% FCS (Bae et al., 1998). To produce tumors, nude BALB/c and C56BL/6 mice were subcutaneously (C8161, KRIB, and PPC1) or orthotopically ([…], PPC1, DU145, M12, and LNCaP) injected with 1×10^6 tumor cells. Transgenic mouse tumor models included TRAMP prostate cancer, MMTV-PyMT breast cancer, and K14-HPV16 cervical cancer. To initiate cervical carcinogenesis, female K14-HPV16 mice (Arbeit et al., 1994) were treated with 17β-estradiol (E2; (Arbeit et al., 1996; Giraudo et al., 2004). Briefly, one-month-old virgin female transgenic (heterozygous K14-HPV16, 1203#1) and nontransgenic (FVB/n) mice were anesthetized with isoflurane, and continuous release pellets that deliver E2 at doses of 0.05 mg over 60 days (Innovative Research of America, Sarasota, Fla., USA) were implanted subcutaneously in the dorsal back skin. Subsequent pellets were implanted at 3 and 5 months of age for a total of 6 months of hormone treatment. K14-HPV16 mice were maintained in the FVB/n background (FVB/n; The Jackson Laboratory). The mice were maintained in accordance with the University of California, San Francisco (UCSF) institutional guidelines governing the care of laboratory mice. The animal experimentation was approved by Animal Research Committees at UCSF or The Burnham Institute.
(§2) In vivo homing specificity of phage was tested as described (Hoffman, 2004). Briefly, mice bearing tumors were anesthetized and intravenously injected with 5×10^9 pfu of phage. After 7 min, the mice were perfused through the heart with PBS containing 0.5% BSA. The tumor and control organs were dissected from each mouse and the phage were rescued and tittered. For histology analysis, the mice were perfused with 4% PFA 30 min after the injection of phage. Tissues were embedded in Tissue-Tek O.C.T. and 5 μm sections were prepared for phage immunostaining.

TRAMP PIN lesions = test: In vivo phage homing to TRAMP pre-malignant (PIN) lesions; set-up: species or system mouse; settings: for phage homing to TRAMP pre-malignant lesions (in words): i.v. injected phage
Experimental: as §1, §2

[2] = tested on: human prostate tumor sections; test: Phage overlay of tissue sections from human prostate cancer; settings: two primary human prostate cancers
Experimental: The frozen sections of human prostate tumor specimens were obtained from Dr. Daniel Mercola (Sidney Kimmel Cancer Center, La Jolla, Calif.). The sections (5 μm) were preincubated with blocking buffer (5% normal goat serum and 0.5% BSA in 1×PBS) for 1 hr at room temperature, washed three times with diluted blocking buffer (1:10), and phage (3×10^9 pfu) were incubated on the section for 4 hrs. After 3 washes, rabbit anti-phage antibody (10 μg/ml) was added and the phage incubated for 2 hrs. The slides were washed and incubated with AlexaFluor-488 goat anti-rabbit IgG for 1 hr. After further washes, the slides were mounted with Vectashield (VECTOR, Burlingame, Calif.).

normal tissues = test: In vivo phage homing to normal and control tissues; set-up: species or system mouse; settings: for phage in other tissues versus nonrecombinant control phage: lymph nodes, kidneys, lungs, skin, gut
Experimental: as §2

MMTV-PyMT breast tumors = test: In vivo phage homing to MMTV-PyMT breast tumors; set-up: species or system mouse; settings: for phage homing to MMTV-PyMT breast tumors (in words): i.v. injected phage; for Fold over control phage / Specific Homing: phage homing in vivo, MMTV-PyMT breast tumors
Experimental: as §1, §2

[3] = tested on: K14-HPV16/E2 cervical tumors; test: In vivo phage homing to K14-HPV16/E2 cervical tumors; set-up: species or system mouse; settings: for phage homing to K14-HPV16/E2 cervical tumors (in words): i.v. injected phage; for Fold over control phage / Specific Homing: phage homing in vivo, K14-HPV16/E2 cervical cancer / cervical tumors
Experimental: as §1, §2

TRAMP prostate tumors [4] = test: In vivo phage homing to TRAMP prostate tumors; set-up: species or system mouse; settings: for Fold over control phage / Specific Homing: phage homing in vivo, TRAMP prostate tumors; for phage homing to TRAMP prostate tumors (in words): i.v. injected phage
Experimental: as §1, §2

TRAMP prostate tumors [5] = settings: for fluorescent peptide in TRAMP prostate tumors (in words): fluorescein-conjugated peptide i.v.
Experimental: (§3) Custom immunization to produce a rabbit antiserum against mouse Prox-1 was performed by Proteintech Inc. New Zealand White rabbits were immunized with a fusion protein of GST-C-terminal fragment of Prox-1 protein. The antibody was affinity purified on the fusion protein and absorbed with GST. […] Antibodies against the lymphatic markers anti-LYVE-1 (Laakkonen et al., 2002) and anti-podoplanin (kindly provided by T. Petrova and K. Alitalo), rat monoclonal anti-mouse CD31 (BD Pharmingen), rat anti-mouse MECA-32 (Pharmingen), rabbit polyclonal anti-T7 phage, and rat anti-mouse VEGFR3 were used for immunohistochemical staining of frozen tissue sections as described (Joyce et al., 2003; Laakkonen et al., 2002). The corresponding secondary antibodies were added and incubated for 1 hr at room temperature: AlexaFluor-488 goat anti-rat or rabbit IgG (1:1000; Molecular Probes, Eugene, Oreg.), AlexaFluor-594 goat anti-rat or rabbit IgG (1:1000, Molecular Probes), AlexaFluor-594 donkey anti-mouse or goat IgG (1:1000, Molecular Probes), and AlexaFluor-488 donkey anti-mouse or goat IgG (1:1000; Molecular Probes), respectively. The slides were washed three times with PBS and mounted in Vectashield Mounting Medium with DAPI (Vector Laboratories, Burlingame, Calif.). Blood vessels were also visualized by intravenously injecting Lycopersicon esculentum (tomato) lectin conjugated to fluorescein (100 μg of lectin in 200 μl of PBS; Vector Laboratories). […] The injected peptides were allowed to circulate 30 min to 2 hrs, and the mice were perfused with 4% paraformaldehyde through the left ventricle of heart. Tissues were dissected and frozen in OCT embedding medium (Tissue-Tek, Elkhart, Ind.). The frozen sections were prepared for immunohistological analysis.

[6] = tested on: pre-malignant TRAMP lesions
Experimental: as §3

PPC1 s.c. xenografts = test: In vivo phage homing to PPC1 s.c. xenografts; set-up: species or system mouse
Experimental: as §1
In vivo homing specificity of phage was tested as described (Hoffman, 2004). Briefly, mice bearing tumors were anesthetized and intravenously injected with 5×10^9 pfu of phage. […]

KRIB xenografts = test: In vivo phage homing to KRIB xenografts; set-up: species or system mouse
Experimental: as §1, §2

[7] = phage homing in vivo, K14-HPV16/E2 cervical dysplasia
[8] = phage homing in vivo, TRAMP PIN lesions
[9] = phage and fluorescein-labeled peptide, TRAMP pre-malignant lesions
[10] = phage homing in vivo, PPC1 s.c. xenografts
[11] = phage homing in vivo, KRIB xenografts
[12] = phage and fluorescein-labeled peptide, TRAMP tumors

## CAGRRSAYC
[1]; i.v. injected phage
  phage homing to K14-HPV16/E2 pre-malignant cervical lesions (in words): little homing of the phage
[1]; [7]
  Fold over control phage: 5 fold
  Specific Homing: No
TRAMP PIN lesions; listed as AGR phage
  phage homing to TRAMP pre-malignant lesions (in words): selectively home to pre-malignant lesions; also recorded: homed significantly more; also recorded: homes only to pre-malignant lesions; also recorded: marked preference
TRAMP PIN lesions; phage clones tested in vivo individually
  enrichment to pre-malignant TRAMP lesions relative to nonrecombinant phage: 24 fold
TRAMP PIN lesions; [8]
  Fold over control phage: 18 fold
  Specific Homing: Yes
[2]
  phage binding to human prostate tumor sections (in words): did not bind
Normal tissues
  phage in other tissues versus nonrecombinant control phage: Neither phage was found in other tissues
MMTV-PyMT breast tumors
  phage homing to MMTV-PyMT breast tumors (in words): little homing of the phage
  Fold over control phage: 4 fold
  Specific Homing: No
[3]
  phage homing to K14-HPV16/E2 cervical tumors (in words): little homing of the phage
  Fold over control phage: 4 fold
  Specific Homing: No
TRAMP prostate tumors [4]
  Fold over control phage: 4 fold
  Specific Homing: No
TRAMP prostate tumors [5]
  fluorescent peptide in TRAMP prostate tumors (in words): little or no peptide was seen
[6]; [9]
  co-localization with lymphatic markers podoplanin, VEGFR3, LYVE-1, Prox-1: substantial co-localization
  localization versus blood vessel markers CD31 and MECA-32: entirely distinct

## CREAGRKAC
PPC1 s.c. xenografts; i.v. injected phage, 7 min circulation
  phage homing to subcutaneous PPC1 xenografts versus orthotopic (in words): homed less efficiently
PPC1 s.c. xenografts; [10]
  Fold over control phage: 6 fold
  Specific Homing: No
TRAMP PIN lesions
  phage homing to TRAMP pre-malignant lesions (in words): not to pre-malignant lesions or normal prostate
[2]
  phage binding to human prostate tumor sections (in words): recognizes the lymphatics of human prostate tumors
Normal tissues
  phage in other tissues versus nonrecombinant control phage: Neither phage was found in other tissues
Normal tissues; tumor-free littermates of TRAMP mice
  phage homing to normal prostate: not to pre-malignant lesions or normal prostate
MMTV-PyMT breast tumors
  phage homing to MMTV-PyMT breast tumors (in words): negative for REA binding
  Fold over control phage: 8^‡ fold
  Specific Homing: Yes
[3]
  phage homing to K14-HPV16/E2 cervical tumors (in words): slightly positive
  Fold over control phage: 7^‡ fold
  Specific Homing: Yes
KRIB xenografts; i.v. injected phage
  phage homing to KRIB xenografts (in words): negative for REA binding
KRIB xenografts; [11]
  Fold over control phage: 7^‡ fold
  Specific Homing: Yes
TRAMP prostate tumors [4]; i.v. injected phage clone
  enrichment in TRAMP tumors relative to nonrecombinant phage: 50 fold
TRAMP prostate tumors [4]; listed as REA phage
  phage homing to TRAMP prostate tumors (in words): homes to tumors
TRAMP prostate tumors [4]; listed as REA-phage
  phage homing to TRAMP prostate tumors (in words): accumulate in TRAMP tumors; also recorded: Significant phage homing
TRAMP prostate tumors [4]
  Fold over control phage: 46 fold
  Specific Homing: Yes
TRAMP prostate tumors [5]
  fluorescent peptide in TRAMP prostate tumors (in words): accumulated in prostate tumors
TRAMP prostate tumors [5]; fluorescein-conjugated peptide, prostate tumors
  overlap with podoplanin-positive lymphatic vessels: 90%
TRAMP prostate tumors [5]; [12]
  co-localization with lymphatic markers podoplanin, VEGFR3, LYVE-1, Prox-1: substantial co-localization
  localization versus blood vessel markers CD31 and MECA-32: entirely distinct
[6]; fluorescein-conjugated peptide i.v.
  fluorescent peptide in TRAMP pre-malignant lesions (in words): negative
